# Measured values from PubChem BioAssay (NCI).
#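 Here, GI50 denotes the concentration required for 50% inhibition of growth. TGI marks complete inhibition of growth.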
# How the values were obtained:
# Experiment in all cases: NCI anticancer screen, dose series, 384-well format
# COLO 205 colon = system: COLO 205 colon
# NCI-H226 lung = system: NCI-H226 lung
# SW-620 colon = system: SW-620 colon
# 786-0 renal = system: 786-0 renal
# OVCAR-3 ovarian = system: OVCAR-3 ovarian
# TK-10 renal = system: TK-10 renal
# MOLT-4 leukemia = system: MOLT-4 leukemia
# NCI-H522 lung = system: NCI-H522 lung
# UO-31 renal = system: UO-31 renal
# M14 melanoma = system: M14 melanoma
# NCI-H322M lung = system: NCI-H322M lung
# LOX IMVI melanoma = system: LOX IMVI melanoma
# PC-3 prostate = system: PC-3 prostate
# HOP-62 NSCLC = system: HOP-62 NSCLC
# SK-OV-3 ovarian = system: SK-OV-3 ovarian
# A549 NSCLC = system: A549 NSCLC
# NCI-H460 NSCLC = system: NCI-H460 NSCLC
# HCT-116 colon = system: HCT-116 colon
# K-562 leukemia = system: K-562 leukemia
# SF-268 CNS = system: SF-268 CNS
# SF-539 CNS = system: SF-539 CNS
# BT-549 breast = system: BT-549 breast
# T-47D breast = system: T-47D breast
# HCT-15 colon = system: HCT-15 colon
# SN12C renal = system: SN12C renal
# SNB-19 CNS = system: SNB-19 CNS
# IGROV1 ovarian = system: IGROV1 ovarian
# CCRF-CEM leukemia = system: CCRF-CEM leukemia
# ACHN renal = system: ACHN renal
# OVCAR-8 ovarian = system: OVCAR-8 ovarian
# SK-MEL-28 melanoma = system: SK-MEL-28 melanoma
# OVCAR-4 ovarian = system: OVCAR-4 ovarian
# KM12 colon = system: KM12 colon
# SK-MEL-5 melanoma = system: SK-MEL-5 melanoma
# HT29 colon = system: HT29 colon
# MDA-MB-468 breast = system: MDA-MB-468 breast
# DU-145 prostate = system: DU-145 prostate
# U251 glioblastoma = system: U251 glioblastoma
# HCC-2998 colon = system: HCC-2998 colon
# CAKI-1 renal = system: CAKI-1 renal
# RPMI-8226 leukemia = system: RPMI-8226 leukemia
# UACC-62 melanoma = system: UACC-62 melanoma
# MCF7 breast = system: MCF7 breast
# SR leukemia = system: SR leukemia
# HL-60(TB) leukemia = system: HL-60(TB) leukemia
# MDA-MB-231 breast = system: MDA-MB-231 breast
# MDA-MB-435 melanoma = system: MDA-MB-435 melanoma
# SK-MEL-2 melanoma = system: SK-MEL-2 melanoma
# SF-295 CNS = system: SF-295 CNS
# A498 renal = system: A498 renal
# OVCAR-5 ovarian = system: OVCAR-5 ovarian
# RXF 393 renal = system: RXF 393 renal
# MALME-3M melanoma = system: MALME-3M melanoma
# NCI-H23 lung = system: NCI-H23 lung
# UACC-257 melanoma = system: UACC-257 melanoma
# NCI/ADR-RES ovarian = system: NCI/ADR-RES ovarian
# HOP-92 NSCLC = system: HOP-92 NSCLC
compound,measurement,setting,value
NCCCC[C@@H]1NC(=O)[C@H](CC(=O)O)NC(=O)CNC(=O)[C@H](CCCN=C(N)N)NC(=O)[C@@H](N)CSSC[C@@H](C(=O)O)NC(=O)[C@H](CC(=O)O)NC(=O)[C@@H]2CCCN2C(=O)CNC1=O,GI50,COLO 205 colon,> 100 µM
same,TGI,COLO 205 colon,> 100 µM
same,GI50,NCI-H226 lung,> 100 µM
same,TGI,NCI-H226 lung,> 100 µM
same,GI50,SW-620 colon,> 100 µM
same,TGI,SW-620 colon,> 100 µM
same,GI50,786-0 renal,> 100 µM
same,TGI,786-0 renal,> 100 µM
same,GI50,OVCAR-3 ovarian,> 100 µM
same,TGI,OVCAR-3 ovarian,> 100 µM
same,GI50,TK-10 renal,> 100 µM
same,TGI,TK-10 renal,> 100 µM
same,GI50,MOLT-4 leukemia,> 100 µM
same,TGI,MOLT-4 leukemia,> 100 µM
same,GI50,NCI-H522 lung,> 100 µM
same,TGI,NCI-H522 lung,> 100 µM
same,GI50,UO-31 renal,> 100 µM
same,TGI,UO-31 renal,> 100 µM
same,GI50,M14 melanoma,> 100 µM
same,TGI,M14 melanoma,> 100 µM
same,GI50,NCI-H322M lung,> 100 µM
same,TGI,NCI-H322M lung,> 100 µM
same,GI50,LOX IMVI melanoma,> 100 µM
same,TGI,LOX IMVI melanoma,> 100 µM
same,GI50,PC-3 prostate,> 100 µM
same,TGI,PC-3 prostate,> 100 µM
same,GI50,HOP-62 NSCLC,> 100 µM
same,TGI,HOP-62 NSCLC,> 100 µM
same,GI50,SK-OV-3 ovarian,> 100 µM
same,TGI,SK-OV-3 ovarian,> 100 µM
same,GI50,A549 NSCLC,> 100 µM
same,TGI,A549 NSCLC,> 100 µM
same,GI50,NCI-H460 NSCLC,> 100 µM
same,TGI,NCI-H460 NSCLC,> 100 µM
same,GI50,HCT-116 colon,> 100 µM
same,TGI,HCT-116 colon,> 100 µM
same,GI50,K-562 leukemia,> 100 µM
same,TGI,K-562 leukemia,> 100 µM
same,GI50,SF-268 CNS,> 100 µM
same,TGI,SF-268 CNS,> 100 µM
same,GI50,SF-539 CNS,> 100 µM
same,TGI,SF-539 CNS,> 100 µM
same,GI50,BT-549 breast,> 100 µM
same,TGI,BT-549 breast,> 100 µM
same,GI50,T-47D breast,> 100 µM
same,TGI,T-47D breast,> 100 µM
same,GI50,HCT-15 colon,> 100 µM
same,TGI,HCT-15 colon,> 100 µM
same,GI50,SN12C renal,> 100 µM
same,TGI,SN12C renal,> 100 µM
same,GI50,SNB-19 CNS,> 100 µM
same,TGI,SNB-19 CNS,> 100 µM
same,GI50,IGROV1 ovarian,> 100 µM
same,TGI,IGROV1 ovarian,> 100 µM
same,GI50,CCRF-CEM leukemia,> 100 µM
same,TGI,CCRF-CEM leukemia,> 100 µM
same,GI50,ACHN renal,> 100 µM
same,TGI,ACHN renal,> 100 µM
same,GI50,OVCAR-8 ovarian,> 100 µM
same,TGI,OVCAR-8 ovarian,> 100 µM
same,GI50,SK-MEL-28 melanoma,> 100 µM
same,TGI,SK-MEL-28 melanoma,> 100 µM
same,GI50,OVCAR-4 ovarian,> 100 µM
same,TGI,OVCAR-4 ovarian,> 100 µM
same,GI50,KM12 colon,> 100 µM
same,TGI,KM12 colon,> 100 µM
same,GI50,SK-MEL-5 melanoma,> 100 µM
same,TGI,SK-MEL-5 melanoma,> 100 µM
same,GI50,HT29 colon,> 100 µM
same,TGI,HT29 colon,> 100 µM
same,GI50,MDA-MB-468 breast,> 100 µM
same,TGI,MDA-MB-468 breast,> 100 µM
same,GI50,DU-145 prostate,> 100 µM
same,TGI,DU-145 prostate,> 100 µM
same,GI50,U251 glioblastoma,> 100 µM
same,TGI,U251 glioblastoma,> 100 µM
same,GI50,HCC-2998 colon,> 100 µM
same,TGI,HCC-2998 colon,> 100 µM
same,GI50,CAKI-1 renal,> 100 µM
same,TGI,CAKI-1 renal,> 100 µM
same,GI50,RPMI-8226 leukemia,> 100 µM
same,TGI,RPMI-8226 leukemia,> 100 µM
same,GI50,UACC-62 melanoma,80 µM
same,TGI,UACC-62 melanoma,> 100 µM
same,GI50,MCF7 breast,> 100 µM
same,TGI,MCF7 breast,> 100 µM
same,GI50,SR leukemia,> 100 µM
same,TGI,SR leukemia,> 100 µM
same,GI50,HL-60(TB) leukemia,> 100 µM
same,TGI,HL-60(TB) leukemia,> 100 µM
same,GI50,MDA-MB-231 breast,> 100 µM
same,TGI,MDA-MB-231 breast,> 100 µM
same,GI50,MDA-MB-435 melanoma,> 100 µM
same,TGI,MDA-MB-435 melanoma,> 100 µM
same,GI50,SK-MEL-2 melanoma,> 100 µM
same,TGI,SK-MEL-2 melanoma,> 100 µM
same,GI50,SF-295 CNS,> 100 µM
same,TGI,SF-295 CNS,> 100 µM
same,GI50,A498 renal,> 100 µM
same,TGI,A498 renal,> 100 µM
same,GI50,OVCAR-5 ovarian,> 100 µM
same,TGI,OVCAR-5 ovarian,> 100 µM
same,GI50,RXF 393 renal,> 100 µM
same,TGI,RXF 393 renal,> 100 µM
same,GI50,MALME-3M melanoma,93.7 µM
same,TGI,MALME-3M melanoma,> 100 µM
same,GI50,NCI-H23 lung,> 100 µM
same,TGI,NCI-H23 lung,> 100 µM
same,GI50,UACC-257 melanoma,> 100 µM
same,TGI,UACC-257 melanoma,> 100 µM
same,GI50,NCI/ADR-RES ovarian,> 100 µM
same,TGI,NCI/ADR-RES ovarian,> 100 µM
same,GI50,HOP-92 NSCLC,> 100 µM
same,TGI,HOP-92 NSCLC,> 100 µM
